The source of these data is ChEMBL document CHEMBL5625273, “Antiproliferative activities through accelerating autophagic flux by basidalin and its analogs in human cancer cells” (Bioorg Med Chem Lett, 2024).

Common to all, as to assay type: functional, cell-based
One assay concerns MCF7. In words: Antiproliferative activity against human MCF7 cells by MTT assay.
The subject of assay [1] is HeLa. In words: Induction of autophagy in human HeLa cells assessed as increase in LC3-II expression at 100 uM incubated for 24 hrs by Western blot analysis. In general terms: In western blotting, separated proteins are transferred to a membrane and probed.
In the next assay the test system is PANC-1. Description: Antiproliferative activity against human PANC-1 cells by MTT assay. (In general: Formazan colour is commonly taken as a measure of viable cells.)
The next assay concerns PC-3. Description: Antiproliferative activity against human PC-3 cells by MTT assay.
A further assay concerns HCT-116. Description: Antiproliferative activity against human HCT-116 cells by MTT assay.
In assay [2] the test system is HeLa. Description: Antiproliferative activity against human HeLa cells by MTT assay.
The next assay has as its system HT-1080. In words: Antiproliferative activity against human HT-1080 cells by MTT assay.
For a further assay, the system named is SK-MEL-28. In words: Antiproliferative activity against human SK-MEL-28 cells by MTT assay.
In assay [3] the test system is HeLa. Description: Effect on p70S6K phosphorylation in human HeLa cells at 100 uM incubated for 24 hrs by Western blot analysis.
Assay [4] has as its system HeLa. Description: Induction of autophagic flux in human HeLa cells assessed as increase in LC3-II expression at 30 to 100 uM incubated for 24 hrs in presence of pepA by Western blot analysis. The note with it: dose 30-100 µM.
The subject of assay [5] is HeLa. Description: Induction of autophagy in human HeLa cells assessed as increase in LC3-II expression incubated for 24 hrs by Western blot analysis. The note with it: dose 1-30 µM.
Assay [6] has as its system HeLa. In words: Effect on p70S6K phosphorylation in human HeLa cells at 1 to 30 uM incubated for 24 hrs by Western blot analysis. The settings on record: dose 1-30 µM.
The test system of assay [7] is HeLa. In words: Induction of autophagic flux in human HeLa cells assessed as increase in LC3-II expression at 30 to 100 uM incubated for 24 hrs in presence of E64D by Western blot analysis. The settings on record: dose 30-100 µM.
Assay [8] has as its system SH-SY5Y. In words: Induction of autophagic flux in human SH-SY5Y cells expressing GFP-LC3 assessed as increase in LC3 punctae co-localized with LAMP1 at 30 to 100 uM incubated for 24 hrs in presence of pepA. The settings on record: dose 30-100 µM.
Assay [9] deals with SH-SY5Y. In words: Induction of autophagic flux in human SH-SY5Y cells expressing GFP-LC3 assessed as increase in LC3 punctae co-localized with LAMP1 at 30 to 100 uM incubated for 24 hrs in presence of E64D. The settings on record: dose 30-100 µM.

By pIC50 is commonly meant the IC50 on a negative log10 scale, so that one unit is a factor of ten. Lower therefore signals a large IC50.

SMILES strings stand for the structures. pIC50: −log10 of the molar value. Calls of active or inactive are those of the source. The rule behind the calls is not given here.

Turning to `CC(=O)NC1=CC(=O)O/C1=C/C(OC(C)=O)OC(C)=O`, the pIC50 in the assay with MCF7 is 4.65; in the assay with PANC-1 it was 4.50; with PC-3, 4.37; with HCT-116 it was 4.52; with HeLa [2] it was 4.35; with HT-1080, 4.39. The compound also gave a pIC50 with SK-MEL-28 of 4.43. For the same compound, the outcome in the assay with HeLa [1] was Active. In addition, the result with HeLa [3] was inactive.

With `NC1=CC(=O)O/C1=C/C=O`, the pIC50 in the assay with MCF7 was 5.10; in the assay with PANC-1, 5.28; with PC-3, 5.01; in the assay with HCT-116 it was 5.27; in the assay with HeLa [2], 4.81; with HT-1080, 4.94. In the assay on SK-MEL-28, this compound showed a pIC50 of 5.23. In addition, the result in the assay with HeLa [4], with HeLa [7], with SH-SY5Y [8] and with SH-SY5Y [9] was Active. Further, the Activity result with HeLa [5] was “Dose-Dependent Effect”. Also, in the assay on HeLa [6], the result was inactive.

Turning to `CC(=O)NC1=CC(=O)O/C1=C/C=O`, the pIC50 is 4.41 in the assay on MCF7; 4.79 in the assay on PANC-1; 4.66 with PC-3; 4.57 with HCT-116; 4.56 in the assay with HeLa [2]; 4.34 in the assay on HT-1080. Also, the pIC50 in the assay with SK-MEL-28 is 4.91. Besides, in the assay on HeLa [1], the outcome was Active. Besides, the outcome in the assay with HeLa [3] was inactive.

For the compound `NC1=CC(=O)OC1CCO` (stereo not given), the pIC50 with MCF7, with PANC-1, in the assay with PC-3, with HCT-116, with HeLa [2] and in the assay on HT-1080 was under 4.00 each time. This compound also gave a pIC50 in the assay on SK-MEL-28 of under 4.00.

With `NC1=CC(=O)O/C1=C/CO`, the pIC50 in the assay with MCF7, in the assay with PANC-1, with PC-3, in the assay on HCT-116, in the assay with HeLa [2] and in the assay on HT-1080 was under 4.00 throughout. Further, the negative-log IC50 (pIC50) in the assay on SK-MEL-28 was under 4.00.
